For test [1], the target named is T1, T1R1/T1R3 receptor (Felis catus, UniProt E3UMS2). Kind of test: Example 8: PAM screening of transmembrane compounds with GMP and Ala on T1R1/T1R3 in HEK293 cells. It counts as cell-based, cat. To be noted: for T1R1/T1R3 PAM: compound at 0.01, 0.1 and 1 mM in combination with GMP+Ala mixtures (T1-T4), PAM if response greater than sum of compound alone and GMP+Ala alone; for PAM profile assessment (PAM activity): in the presence of GMP and Alanine. The source says:
HEK293 cells that stably express T1R3 and inducibly express T1R1 were exposed to transmembrane compound alone or in combination with Ala and GMP to activate the umami receptor. Activation of the T1R1/T1R3 receptor was detected by a change in intracellular calcium levels using a calcium sensitive fluorescent dye and/or a luminescent reporter system. […] A FLIPR® Tetra or a FlexStation® 3 was used for data capture.
Dose response curves were generated for each transmembrane compound at concentrations of 0 (buffer only), 0.01, 0.1 and 1 mM, wherein each of the three concentrations of transmembrane compound was tested in combination with 0.03 mM GMP+100 mM Ala (T1); 0.6 mM GMP+10 mM Ala (T2); 0.1 mM GMP+60 mM Ala (T3) and 0.3 mM GMP+60 mM Ala (T4). The T4 mixture was also tested in a 2-fold dilution series (the T4(×) Concentration). In these experiments, the first test concentration was 2× (2 times) the T4 concentration. The subsequent test concentrations were 2-fold dilutions from that (1×, 0.5×etc.). This dilution series was tested with or without the addition of the test compound at a constant 0.3 mM concentration.
Activation of the umami receptor was also determined in the presence of 1 mM GMP+100 mM Ala to generate a “maximum” umami receptor activation level.

Test [2] deals with T1, T1R1/T1R3 receptor. Kind of test: Example 8: agonist screening of transmembrane compounds on T1R1/T1R3 in HEK293 cells. It counts as cell-based, cat. To be noted: for T1R1/T1R3 agonist: transmembrane compound tested at 0.01, 0.1 and 1 mM, HEK293 cells expressing T1R1/T1R3, intracellular calcium; for agonist profile assessment (agonist activity): transmembrane compound alone. The procedure: HEK293 cells that stably express T1R3 and inducibly express T1R1 were exposed to a transmembrane compound. Activation of the T1R1/T1R3 receptor was detected by a change in intracellular calcium levels using a calcium sensitive fluorescent dye and/or a luminescent reporter system. […] A FLIPR® Tetra or a FlexStation® 3 was used for data capture.
Each transmembrane compound was tested at concentrations of 0.01 mM, 0.1 mM, and 1 mM. […] To generate the dose response curves, the transmembrane compound was tested at concentrations of between 0.0001 mM and 1.0 mM in the presence of GMP and Ala.
(In general: Calcium flux is commonly read through the fluorescence of an indicator in the cells.)

The target in test [3] is T1, T1R1/T1R3 receptor. The test can be described thus: cell-based. The source says: HEK293 cells that stably express T1R3 and inducibly express T1R1 were exposed to nucleotide derivatives alone to activate the umami receptor. Activation of the T1R1/T1R3 receptor was detected by a change in intracellular calcium levels using a calcium sensitive fluorescent dye. Cells that express T1R3 but not T1R1 were used as a control. A FLIPR® Tetra or a FlexStation® 3 was used for data capture.
HEK293 cells that stably express T1R3 and inducibly express T1R1 were exposed to nucleotide derivatives alone or in combination with one or more amino acids and/or one or more nucleotides to activate the umami receptor. Activation of the T1R1/T1R3 receptor was detected by a change in intracellular calcium levels using a calcium sensitive fluorescent dye and/or a luminescent reporter system. Cells that express T1R3 but not T1R1 were used as a control. A FLIPR® Tetra or a FlexStation® 3 was used for data capture.
HEK293 cells that stably express T1R3 and inducibly express T1R1 were exposed to transmembrane compounds alone or in combination with one or more amino acids and/or one or more nucleotides to activate the umami receptor. Activation of the T1R1/T1R3 receptor was detected by a change in intracellular calcium levels using a calcium sensitive fluorescent dye. Cells that express T1R3 but not T1R1 were used as a control. A FLIPR® Tetra or a FlexStation® 3 was used for data capture.
In each experiment, serial dilutions of up to 10 mM of the transmembrane compound were added to the T1R1/T1R3-expressing cells.

Like-named read-outs stand apart in the source and are kept apart here.

Turning to `O=C(CN1C(=O)C(=O)N(Cc2ccccc2)C1=O)c1ccc2c(c1)OCCCO2` [Formula 8, 1-benzyl-3-(2-(3,4-dihydro-2H-benzo[b][1,4]dioxepin-7-yl)-2-oxoethyl)imidazolidine-2,4,5-trione], in test [1], the “T1R1/T1R3 PAM” value was “Weak PAM”. For the same compound, the T1R1/T1R3 agonist entry in test [2] is recorded as “No”.

As for `COc1ccccc1C(=O)CN1C(=O)C(=O)N(Cc2cccs2)C1=O` [Formula 10, 1-(2-(2-methoxyphenyl)-2-oxoethyl)-3-(thiophen-2-ylmethyl)imidazolidine-2,4,5-trione], the “T1R1/T1R3 PAM” value in test [1] is “No”. Further, in test [2], the T1R1/T1R3 agonist entry is “No”.

As for `O=C(O)[C@H](Cc1ccc(O)cc1)NCc1ccccc1` [Formula 22, N-Benzyl-L-Tyrosine], the “T1R1/T1R3 PAM” value in test [1] is given as “No”. For the same compound, the T1R1/T1R3 agonist result in test [2] is “No”.

Turning to `O=C1CC(=O)N(Cc2ccccc2)C(=O)N1Cc1ccccc1` [Formula 24, 1,3-dibenzylpyrimidine-2,4,6(1H,3H,5H)-trione], in test [1], the “T1R1/T1R3 PAM” value was “No”. For the same compound, the T1R1/T1R3 agonist result in test [2] is reported as “Yes”.

On to `O=C(CN1C(=O)C(=O)N(Cc2ccccc2)C1=O)c1ccc2c(c1)OCCO2` [Formula 4, 1-benzyl-3-(2-(2,3-dihydrobenzo[b][1,4]dioxin-6-yl)-2-oxoethyl)imidazolidine-2,4,5-trione], for which, in test [1], the “T1R1/T1R3 PAM” value is listed as “No”. Further, the T1R1/T1R3 agonist entry in test [2] is on record as “No”.

Turning to `O=C(CN1C(=O)C(=O)N(Cc2ccccc2)C1=O)c1ccccc1` [Formula 1, 1-benzyl-3-(2-oxo-2-phenylethyl)imidazolidine-2,4,5-trione], the “T1R1/T1R3 PAM” value in test [1] is listed as “No”. Further, the T1R1/T1R3 agonist result in test [2] is listed as “No”.

In the case of `COC(=O)C(NCc1ccccc1)c1ccccc1` (centres unmarked) [Methyl-2-benzylamino-2-phenylacetate], the “PAM profile assessment (PAM activity)” value in test [1] is listed as “PAM activity”. In test [2], the “agonist profile assessment (agonist activity)” value is reported as “agonist”.

As to `CCCC(CCC)NC(=O)c1ccc2c(c1)OCO2` [Formula 14, N-(heptan-4-yl)benzo[d][1,3]dioxole-5-carboxamide], the “T1R1/T1R3 PAM” value in test [1] was “Yes”. In addition, the T1R1/T1R3 agonist entry in test [2] is “Yes”.

Take `COC(=O)[C@@H](Cc1ccccc1)NCc1ccccc1.Cl` [Formula 16, N-Benzyl-D-Phenylalanine methyl ester hydrochloride]: the “T1R1/T1R3 PAM” value in test [1] is “Yes”. Further, the T1R1/T1R3 agonist entry in test [2] is listed as “Yes”.

For `COC(=O)[C@H](Cc1ccccc1)NCc1ccccc1.Cl` [Formula 15, N-Benzyl-L-phenylalanine methyl ester hydrochloride], in test [1], the “T1R1/T1R3 PAM” value is reported as “Yes”. For the same compound, the T1R1/T1R3 agonist result in test [2] was “Yes”.

Regarding `COC(=O)[C@H](CC(C)C)NCc1ccccc1.Cl` [Formula 18, Benzyl-L-leucine methyl ester hydrochloride], the “T1R1/T1R3 PAM” value in test [1] is given as “Yes”. Besides, in test [2], the T1R1/T1R3 agonist result was “Yes”.

As for `O=C(CN1C(=O)C(=O)N(Cc2ccccc2)C1=O)c1ccc2c(c1)OCCCO2` [1-benzyl-3-(2-(3,4-dihydro-2H-benzo[b][1,4]dioxepin-7-yl)-2-oxoethyl)imidazolidine-2,4,5-trione], the “PAM profile assessment (PAM activity)” value in test [1] was “PAM activity”.

On to `N[C@@H](Cc1ccc(O)cc1)C(=O)OCc1ccccc1` [Formula 21, L-Tyrosine benzyl ester], for which the “T1R1/T1R3 PAM” value in test [1] is “No”. Besides, the T1R1/T1R3 agonist entry in test [2] was “No”.

Regarding `O=C1CC(=O)N(Cc2ccccc2)C(=O)N1Cc1ccccc1` [1,3-dibenzylpyrimidine-2,4,6(1H,3H,5H)-trione], the “Max resp % of IMP, +Alanine (20 mM)” value in test [3] is listed as 42.7%. Besides, the “Thres (mM), +Alanine (20 mM)” value in test [3] was 0.1 mM. Also, the EC50 in test [3] (EC50 (mM), +Alanine (20 mM)) is 0.31 mM; in test [3] (EC50 (mM), +Alanine (20 mM) + IMP (0.2 mM)), above 0.3 mM; in test [3] (EC50 (mM), +IMP (0.2 mM), in the presence of 0.2 mM IMP), 0.52 mM; in test [3] (T1R1/T1R3 EC50 +0.2 mM IMP, +0.2 mM IMP), 0.52 ± 0.19 mM; in test [3] (T1R1/T1R3 EC50 +20 mM L-alanine), 0.31 ± 0.05 mM; in test [3] (T1R1/T1R3 EC50 +20 mM L-alanine + 0.2 mM IMP) it was above 0.3 mM. Moreover, the EC50 in test [3] (alone in buffer, read-out: T1R1/T1R3 EC50 alone in buffer) came out at 0.26 ± 0.01 mM; in test [3] (compound alone in buffer, read-out: EC50 (mM), +buffer (alone)), 0.26 mM. In addition, the “Max resp % of Ala, +IMP (0.2 mM)” value in test [3] (in the presence of 0.2 mM IMP, relative to alanine) is given as 35.7%. Besides, in test [3] (threshold concentration in the presence of 0.2 mM IMP), the “Thres (mM), +IMP (0.2 mM)” value is on record as 0.1 mM. For the same compound, in test [2], the “agonist profile assessment (agonist activity)” value is reported as “agonist activity”.
